Reference: patent US20100029554A1, “Composition and Methods for Treatment of Congestive Heart Failure” (Amylin Pharmaceuticals, Inc., priority 2006, published 2010)
Where a SMILES comes first, the peptide text is derived from it. Where no end group is shown, it is not given here. [ ]: non-standard residue; d: D form. Gly(octyl) = CCCCCCCC[C@H](N)C(=O)O

T1: GLP-1 receptor, endogenous in RINm5f cells (rat (RIN-m5F are called rat pancreas …, UniProt P32301 22-463))
T1 construct: whole, on cells; also called GLP-1 receptors; GLP (RIN)
T1 sequence (looked up): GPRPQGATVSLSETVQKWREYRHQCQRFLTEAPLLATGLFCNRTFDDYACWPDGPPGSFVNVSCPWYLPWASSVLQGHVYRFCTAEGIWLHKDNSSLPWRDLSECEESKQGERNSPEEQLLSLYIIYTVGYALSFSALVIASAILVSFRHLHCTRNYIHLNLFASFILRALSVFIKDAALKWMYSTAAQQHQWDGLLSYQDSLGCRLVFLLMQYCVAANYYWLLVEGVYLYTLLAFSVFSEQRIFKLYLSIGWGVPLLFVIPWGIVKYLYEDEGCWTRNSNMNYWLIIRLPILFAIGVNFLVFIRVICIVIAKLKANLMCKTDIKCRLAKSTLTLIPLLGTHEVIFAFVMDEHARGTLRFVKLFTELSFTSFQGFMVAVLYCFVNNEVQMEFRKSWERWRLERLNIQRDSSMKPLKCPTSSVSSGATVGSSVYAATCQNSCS


Key:
[1] = tested on: GLP/GIP/CT cyclase, RIN-m5F cells; assay: GLP/GIP/CT Cyclase (RIN) assay; assay type: cell-based, rat; conditions: cAMP, values without **
Procedure: GLP/GIP/CT Cyclase (RIN) Assay
Five μl of serially diluted peptides are transferred to the 384-well assay plate. Rat pancreas insulinoma cells (RIN-m5F) are detached from a tissue culture flask with Versene and washed once in buffer. Then RIN-m5F cells are resusupended in buffer at 2.5×10^6 cells/ml. Then 10 μl cells (2.5×10^4 cells) are added to all wells of the assay plate and cells are stimulated at room temperature in the dark for 30 minutes. The reaction is terminated with 10 μl of lysis buffer and incubated at room temperature for 4 hrs in the dark. cAMP content is measured using Perkin Elmer AlphaScreen™ cAMP assay kit and results are read on a Perkin Elmer Fusion fluorometer. The assay is completed in 384-well plates at 25 microliter volumes.

Plasma stability = assay type: in vitro ADME; conditions: 20 μg/mL in plasma, 37° C., 0-5 hours
Procedure: To assess stability, the compound of interest is spiked into plasma at a concentration of 20 μg/mL. It is incubated at 37° C. for 0, 1, 2 3, 4, 5 hours in triplicate. At each time point, MeOH is added to a 96 well microtiter plate and then sample is added in a ratio of 1 part sample to 4 parts MeOH to quench the digestion reaction. Samples are mixed with multi-channel pipette or liquid handler. The plate is then centrifuged for 10 minutes and placed in an autosampler kept at 10° C. Samples are then injected into a mass spectrometer (API 3000, Applied Biosystems) equipped with an autosampler (Leap HTC Pal) and HPLC pumps (Shimadzu LC-10ADVP).

NH/Swiss mice = assay: Glucose lowering assay; assay type: in vivo, mouse; conditions: IP, 2 nmol/kg, change in blood glucose relative to vehicle
Procedure: Female NH/Swiss mice (˜8-20 weeks of age), (Harlan, Indianapolis, Ind., USA), housed 3 mice per cage, are allowed ad libitum access to food and water until the start of the experiment. At two hours prior to treatment, access to food is restricted.
At the time of treatment, the tip of the tail is pricked with a needle to obtain 1 μl blood as a “pre-treatment” control blood sample. Immediately thereafter, each mouse is injected intraperitoneally (IP) with a test sample (1 nmol/kg or 2 nmol/kg) or 200 μl vehicle (10% DMSO saline). Additional blood samples are collected at 30, 60, 120, 180, and 240 minutes after injection.
Blood glucose is measured with a glucose oxidase biosensor (OneTouch® Ultra® (LifeScan, Inc., a Johnson & Johnson Company, Milpitas, Calif.)). At each time point, the effect of the test sample is expressed as the percent change in blood glucose relative to mice injected with vehicle only. Test samples and vehicle controls are also compared to their respective “pre-treatment” controls.
Significant test sample effects are identified by ANOVA (p<0.05). Where a significant difference existed, test means are compared to the control mean with Dunnett's post test using GraphPad Prism version 4.00 for Windows, GraphPad Software, San Diego Calif. USA, www.graphpad.com).

[2] = target: T1, GLP-1 receptor, endogenous in RINm5f …; assay: 125I-GLP-1 displacement, RINm5f membranes
[3] = target: T1, GLP-1 receptor, endogenous in RINm5f …; assay: cell-based or functional assay

Row | Molecule | EC50 [1] [nM] | plasma stability as compared to native GLP-1 (Plasma stability) | GLU LOWERING AUC240 @2 nmol/kg (NH/Swiss mice) [%] | further results
1 | CC[C@H](C)[C@H](NC(=O)[C@@H]1CCCN1C(=O)[C@@H](NC(=O)CNC(=O)CNC(=O)CNC(=O)[C@H](CO)NC(=O)[C@@H]1CCCN1C(=O)[C@H](CCCNC(=N)N)NC(=O)CNC(=O)[C@H](CCCCN)NC(=O)[C@@H](NC(=O)[C@H](CC(C)C)NC(=O)[C@H](Cc1c[nH]c2ccccc12)NC(=O)[C@H](C)NC(=O)[C@@H](NC(=O)[C@H](Cc1ccccc1)NC(=O)[C@H](CCC(=O)O)NC(=O)[C@H](CCCCN)NC(=O)[C@H](C)NC(=O)[C@H](C)NC(=O)[C@H](CCC(N)=O)NC(=O)CNC(=O)[C@H](CCC(=O)O)NC(=O)[C@H](CC(C)C)NC(=O)[C@H](Cc1ccc(O)cc1)NC(=O)[C@H](CO)NC(=O)[C@H](CO)NC(=O)[C@@H](NC(=O)[C@H](CC(=O)O)NC(=O)[C@H](CO)NC(=O)[C@@H](NC(=O)[C@H](Cc1ccccc1)NC(=O)[C@@H](NC(=O)CNC(=O)[C@H](CCC(=O)O)NC(=O)[C@H](C)NC(=O)[C@@H](N)Cc1c[nH]cn1)[C@@H](C)O)[C@@H](C)O)C(C)C)[C@@H](C)CC)C(C)C)[C@@H](C)CC)C(N)=O [Cmpd 4888] | 0.17 | – | – | –
2 | HGEGTFTSDLVKILEAEAVRKFIEFLKN-NH2 [Cmpd 5052] | 4.5 | – | – | –
3 | HGEGTFTSDVTQQLEEEAVRLFIEWLKQGGPSSGAPPPS-NH2 [Cmpd 5099] | 1.29 | increased plasma stability | – | plasma stability as compared to native GLP-1 (Plasma stability; second, narrower list of b152): increased plasma stability
4 | CC[C@H](C)[C@H](NC(=O)[C@H](Cc1ccccc1)NC(=O)[C@H](CC(C)C)NC(=O)[C@H](CCCNC(=N)N)NC(=O)[C@@H](NC(=O)[C@H](C)NC(=O)[C@H](CCC(=O)O)NC(=O)[C@H](CCC(=O)O)NC(=O)[C@H](CCC(=O)O)NC(=O)[C@H](CC(C)C)NC(=O)[C@H](Cc1ccc(O)cc1)NC(=O)[C@H](CCC(=O)O)NC(=O)[C@@H](NC(=O)[C@@H](NC(=O)[C@H](CC(=O)O)NC(=O)[C@H](CC(N)=O)NC(=O)[C@@H](NC(=O)[C@H](Cc1ccc(O)cc1)NC(=O)[C@@H](NC(=O)CNC(=O)[C@H](CCC(=O)O)NC(=O)CNC(=O)[C@@H](N)Cc1c[nH]cn1)[C@@H](C)O)[C@@H](C)O)C(C)C)[C@@H](C)O)C(C)C)C(=O)N[C@@H](CCC(=O)O)C(=O)N[C@@H](Cc1c[nH]c2ccccc12)C(=O)N[C@@H](CC(C)C)C(=O)N[C@@H](CCCCN)C(=O)N[C@@H](CC(N)=O)C(=O)NCC(=O)NCC(=O)N1CCC[C@H]1C(=O)N[C@@H](CO)C(=O)N[C@@H](CO)C(=O)NCC(=O)N[C@@H](C)C(=O)N1CCC[C@H]1C(=O)N1CCC[C@H]1C(=O)N1CCC[C@H]1C(=O)N[C@@H](CO)C(N)=O [Cmpd 5271] | – | increased plasma stability | −17 | –
5 | CCCCCCCC[C@H](NC(=O)[C@H](CCCCN)NC(=O)[C@H](CCCCN)NC(=O)[C@@H]1CCCN1C(=O)[C@H](CCCCN)NC(=O)CNC(=O)[C@H](CC(N)=O)NC(=O)[C@H](CCCCN)NC(=O)[C@H](CC(C)C)NC(=O)[C@H](Cc1ccccc1)NC(=O)[C@H](CCC(=O)O)NC(=O)[C@@H](NC(=O)[C@H](Cc1ccccc1)NC(=O)[C@H](CC(C)C)NC(=O)[C@H](CCCNC(=N)N)NC(=O)[C@@H](NC(=O)[C@H](C)NC(=O)[C@H](CCC(=O)O)NC(=O)[C@H](CCC(=O)O)NC(=O)[C@H](CCC(=O)O)NC(=O)[C@H](CC(C)C)NC(=O)[C@H](CCC(N)=O)NC(=O)[C@H](CCCCN)NC(=O)[C@H](CO)NC(=O)[C@H](CC(C)C)NC(=O)[C@H](CC(=O)O)NC(=O)[C@H](CO)NC(=O)[C@@H](NC(=O)[C@H](Cc1ccccc1)NC(=O)[C@@H](NC(=O)CNC(=O)[C@H](CCC(=O)O)NC(=O)CNC(=O)[C@@H](N)Cc1c[nH]cn1)[C@@H](C)O)[C@@H](C)O)C(C)C)[C@@H](C)CC)C(=O)N[C@@H](CCCNC(=N)N)C(=O)N[C@@H](Cc1ccc(O)cc1)C(=O)N[C@@H](CO)C(=O)O [Cmpd 5269] | 1.31 | – | −14 | –
6 | CC[C@H](C)[C@H](NC(=O)[C@H](Cc1ccccc1)NC(=O)[C@H](CC(C)C)NC(=O)[C@H](CCCNC(=N)N)NC(=O)[C@H](C)NC(=O)[C@H](C)NC(=O)[C@H](CCC(=O)O)NC(=O)[C@H](CCC(=O)O)NC(=O)[C@H](CCC(=O)O)NC(=O)[C@H](CC(C)C)NC(=O)[C@H](Cc1ccc(O)cc1)NC(=O)[C@H](CO)NC(=O)[C@H](CO)NC(=O)[C@@H](NC(=O)[C@H](CC(=O)O)NC(=O)[C@H](CC(N)=O)NC(=O)[C@@H](NC(=O)[C@H](Cc1ccc(O)cc1)NC(=O)[C@@H](NC(=O)CNC(=O)[C@H](CCC(=O)O)NC(=O)CNC(=O)[C@@H](N)Cc1c[nH]cn1)[C@@H](C)O)[C@@H](C)O)C(C)C)C(=O)N[C@@H](CCC(=O)O)C(=O)N[C@@H](Cc1c[nH]c2ccccc12)C(=O)N[C@@H](CC(C)C)C(=O)N[C@@H](CCCCN)C(=O)N[C@@H](CCC(N)=O)C(=O)NCC(=O)NCC(=O)N1CCC[C@H]1C(=O)N[C@@H](CO)C(=O)N[C@@H](CO)C(=O)NCC(=O)N[C@@H](C)C(=O)N1CCC[C@H]1C(=O)N1CCC[C@H]1C(=O)N1CCC[C@H]1C(=O)N[C@@H](CO)C(N)=O [Cmpd 5182] | – | increased plasma stability | −16 | plasma stability as compared to native GLP-1 (Plasma stability; second, narrower list of b152): increased plasma stability
7 | HGEGTFTSDLSKQVQEEAVRLFVEFLKN-NH2 [Cmpd 5035] | 628 | – | – | –
8 | GLP-1-(7-37)-GG-(S)-2,6-diamino-1-(thiazolidin-2-cyano-3-y1)hexan-1-one amide (HAEGTFTSDVSSYLEGQAAKEFIAWLVKGRGGG; C-terminal cyano DPP4 inhibitor moiety, amide) [Cmpd 4845] | 0.4 | – | – | –
9 | HGEGTFTSDLSKQLEEKAAKEFIEWLIQGGPSKEIIS-OH [Cmpd 5101] | 0.863 | increased plasma stability | −10 | plasma stability as compared to native GLP-1 (Plasma stability; second, narrower list of b152): increased plasma stability
10 | CCCCCCCC[C@H](NC(=O)[C@H](CCCCN)NC(=O)[C@H](CCCCN)NC(=O)[C@@H]1CCCN1C(=O)[C@H](CCCCN)NC(=O)CNC(=O)[C@H](CC(N)=O)NC(=O)[C@H](CCCCN)NC(=O)[C@H](CC(C)C)NC(=O)[C@H](Cc1c[nH]c2ccccc12)NC(=O)[C@H](CCC(=O)O)NC(=O)[C@@H](NC(=O)[C@H](Cc1ccccc1)NC(=O)[C@H](CC(C)C)NC(=O)[C@H](CCCNC(=N)N)NC(=O)[C@@H](NC(=O)[C@H](C)NC(=O)[C@H](CCC(=O)O)NC(=O)[C@H](CCC(=O)O)NC(=O)[C@H](CCC(=O)O)NC(=O)[C@H](C)NC(=O)[C@H](CCC(N)=O)NC(=O)[C@H](CCCCN)NC(=O)[C@H](CO)NC(=O)[C@H](CC(C)C)NC(=O)[C@H](CC(=O)O)NC(=O)[C@H](CO)NC(=O)[C@@H](NC(=O)[C@H](Cc1ccccc1)NC(=O)[C@@H](NC(=O)CNC(=O)[C@H](CCC(=O)O)NC(=O)CNC(=O)[C@@H](N)Cc1c[nH]cn1)[C@@H](C)O)[C@@H](C)O)C(C)C)[C@@H](C)CC)C(=O)N[C@@H](CCCNC(=N)N)C(=O)N[C@@H](Cc1ccc(O)cc1)C(=O)N[C@@H](CO)C(=O)O [Cmpd 5268] (H-HGEGTFTSDLSKQAEEEAVRLFIEWLKNGKPKK[Gly(octyl)]RYS-OH; N-terminus assumed) | 0.489 | – | −8 | –
11 | HGEGTFTSDLVKILEAEAVRKFIEFLKN-NH2 [Cmpd 5052] | – | – | – | IC50 [2]: 0.56 nM; cAMP, CYCLASE GLP/GIP/CT (RIN) EC50 [3]: 4.5 nM
